# Measured values reported in PubChem BioAssay AID1963873 (Molecular Pharmacology Branch, DTP, NCI, 2024).
# System: 276233-004-R-J1-PDC KRAS spheroids with HUVEC/MSC, viability
# Experiment: Anticancer human tumor 276233-004-R-J1-PDC patient-derived colon adenocarcinoma cell line growth inhibition [KRAS2]
# Details: for viability, T/C: stronger effect = lower value
# Outline: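 KRAS-mutant tumor cells were grown as spheroids with HUVEC endothelial cells and human MSCs as stroma. Targeted agents were tested alone and with KRAS pathway inhibitors. Doses started at or near clinical Cmax, or 10 microM, descending half-log.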
# [1] = curve of first compound, second compound 0.1 µM
# [2] = curve of first compound, second compound 0.316 µM
# [3] = curve of first compound, second compound 1 µM
# [4] = curve of first compound, second compound 3.16 µM
# [5] = second compound 0.1 µM, first compound 0.0316 µM
# [6] = second compound 0.1 µM, first compound 0.1 µM
# [7] = second compound 0.1 µM, first compound 0.316 µM
# [8] = second compound 0.1 µM, first compound 1 µM
# [9] = second compound 0.1 µM, first compound 3.16 µM
# [10] = second compound 0.1 µM, first compound 10 µM
# [11] = second compound 0.316 µM, first compound 0.0316 µM
# [12] = second compound 0.316 µM, first compound 0.1 µM
# [13] = second compound 0.316 µM, first compound 0.316 µM
# [14] = second compound 0.316 µM, first compound 1 µM
# [15] = second compound 0.316 µM, first compound 3.16 µM
# [16] = second compound 0.316 µM, first compound 10 µM
# [17] = second compound 1 µM, first compound 0.0316 µM
# [18] = second compound 1 µM, first compound 0.1 µM
# [19] = second compound 1 µM, first compound 0.316 µM
# [20] = second compound 1 µM, first compound 1 µM
# [21] = second compound 1 µM, first compound 3.16 µM
# [22] = second compound 1 µM, first compound 10 µM
# [23] = second compound 3.16 µM, first compound 0.0316 µM
# [24] = second compound 3.16 µM, first compound 0.1 µM
# [25] = second compound 3.16 µM, first compound 0.316 µM
# [26] = second compound 3.16 µM, first compound 1 µM
# [27] = second compound 3.16 µM, first compound 3.16 µM
# [28] = second compound 3.16 µM, first compound 10 µM
# [29] = curve of first compound, second compound 10 µM
# [30] = second compound 10 µM, first compound 0.0316 µM
# 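Note: cells exposed to agents for seven days before viability read.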
# 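Throughout, for viability, T/C: 100% = DMSO vehicle control wells and lower values mean fewer viable cells.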
smiles,measurement,setting,value
CCNC(=O)CC1N=C(c2ccc(Cl)cc2)c2cc(OC)ccc2-n2c(C)nnc21 (stereo not given) + C=CC(=O)N1CCN(c2nc(OCC3CCCN3C)nc3c2CCN(c2cccc4cccc(C)c24)C3)CC1CC#N,IC50,"curve of first compound, second compound 0.0316 µM",> 10000 nM
same,IC50,[1],> 10000 nM
same,IC50,[2],> 10000 nM
same,IC50,[3],> 10000 nM
same,IC50,[4],189 nM
same,"viability, T/C","second compound 0.0316 µM, first compound 0.0316 µM",94.8%
same,"viability, T/C","second compound 0.0316 µM, first compound 0.1 µM",80.9%
same,"viability, T/C","second compound 0.0316 µM, first compound 0.316 µM",63.6%
same,"viability, T/C","second compound 0.0316 µM, first compound 1 µM",57.1%
same,"viability, T/C","second compound 0.0316 µM, first compound 3.16 µM",68.6%
same,"viability, T/C","second compound 0.0316 µM, first compound 10 µM",62%
same,"viability, T/C",[5],95.1%
same,"viability, T/C",[6],81.2%
same,"viability, T/C",[7],85.6%
same,"viability, T/C",[8],60.2%
same,"viability, T/C",[9],59.5%
same,"viability, T/C",[10],62.3%
same,"viability, T/C",[11],94.8%
same,"viability, T/C",[12],83.1%
same,"viability, T/C",[13],83.3%
same,"viability, T/C",[14],76.2%
same,"viability, T/C",[15],65.4%
same,"viability, T/C",[16],63.6%
same,"viability, T/C",[17],80.5%
same,"viability, T/C",[18],66.1%
same,"viability, T/C",[19],56.2%
same,"viability, T/C",[20],57.6%
same,"viability, T/C",[21],56.6%
same,"viability, T/C",[22],61.2%
same,"viability, T/C",[23],60.3%
same,"viability, T/C",[24],59.8%
same,"viability, T/C",[25],42%
same,"viability, T/C",[26],33.7%
same,"viability, T/C",[27],36.4%
same,"viability, T/C",[28],38.7%
CC(=O)Nc1cccc(-n2c(=O)n(C3CC3)c(=O)c3c(Nc4ccc(I)cc4F)n(C)c(=O)c(C)c32)c1 + CNCc1ccccc1-c1csc(C(C)Nc2nc(C)nc3cc(OC)c(OC)cc23)c1,IC50,[1],5.93 nM
same,IC50,[2],4.86 nM
same,IC50,[3],1.42 nM
same,IC50,[4],< 0.1 nM
same,IC50,[29],< 0.1 nM
same,"viability, T/C","second compound 0.1 µM, first compound 0.0001 µM",97.3%
same,"viability, T/C","second compound 0.1 µM, first compound 0.000316 µM",77.5%
same,"viability, T/C","second compound 0.1 µM, first compound 0.001 µM",90.5%
same,"viability, T/C","second compound 0.1 µM, first compound 0.00316 µM",59.2%
same,"viability, T/C","second compound 0.1 µM, first compound 0.01 µM",40.1%
same,"viability, T/C",[5],15.5%
same,"viability, T/C","second compound 0.316 µM, first compound 0.0001 µM",93.5%
same,"viability, T/C","second compound 0.316 µM, first compound 0.000316 µM",82.1%
same,"viability, T/C","second compound 0.316 µM, first compound 0.001 µM",83.7%
same,"viability, T/C","second compound 0.316 µM, first compound 0.00316 µM",57%
same,"viability, T/C","second compound 0.316 µM, first compound 0.01 µM",35.2%
same,"viability, T/C",[11],17.3%
same,"viability, T/C","second compound 1 µM, first compound 0.0001 µM",69.4%
same,"viability, T/C","second compound 1 µM, first compound 0.000316 µM",56.5%
same,"viability, T/C","second compound 1 µM, first compound 0.001 µM",61.1%
same,"viability, T/C","second compound 1 µM, first compound 0.00316 µM",27.6%
same,"viability, T/C","second compound 1 µM, first compound 0.01 µM",23.1%
same,"viability, T/C",[17],9.49%
same,"viability, T/C","second compound 3.16 µM, first compound 0.0001 µM",5.56%
same,"viability, T/C","second compound 3.16 µM, first compound 0.000316 µM",0.89%
same,"viability, T/C","second compound 3.16 µM, first compound 0.001 µM",3.86%
same,"viability, T/C","second compound 3.16 µM, first compound 0.00316 µM",1.97%
same,"viability, T/C","second compound 3.16 µM, first compound 0.01 µM",0.56%
same,"viability, T/C",[23],0.49%
same,"viability, T/C","second compound 10 µM, first compound 0.0001 µM",0.21%
same,"viability, T/C","second compound 10 µM, first compound 0.000316 µM",2.92%
same,"viability, T/C","second compound 10 µM, first compound 0.001 µM",4.6%
same,"viability, T/C","second compound 10 µM, first compound 0.00316 µM",3.3%
same,"viability, T/C","second compound 10 µM, first compound 0.01 µM",0.22%
same,"viability, T/C",[30],3.97%
COc1cc(Nc2ncc3c(n2)-c2ccc(Cl)cc2C(c2c(F)cccc2OC)=NC3)ccc1C(=O)O,"viability, T/C",compound 0.1 µM,99.8% [middle of 5 runs]
same,"viability, T/C",compound 0.316 µM,93.1% [middle of 5 runs]
same,"viability, T/C",compound 1 µM,87.7% [middle of 5 runs]
same,"viability, T/C",compound 3.16 µM,95.5% [middle of 5 runs]
same,IC50,curve of compound,> 10000 nM
Cn1nccc1Nc1nccc(-c2cc3c(s2)C(C)(C)N(CCN2CCOCC2)C3=O)n1 + COc1cc2nc(C)nc(NC(C)c3cc(N)cc(C(F)(F)F)c3)c2cc1OC1CCOC1,IC50,[1],1720 nM
same,IC50,[2],2010 nM
same,IC50,[3],1850 nM
same,IC50,[4],2720 nM
same,IC50,[29],< 31.6 nM
same,"viability, T/C",[5],87.1%
same,"viability, T/C",[6],97.3%
same,"viability, T/C",[7],76.2%
same,"viability, T/C",[8],59.4%
same,"viability, T/C",[9],40.8%
same,"viability, T/C",[10],33.8%
same,"viability, T/C",[11],89.2%
same,"viability, T/C",[12],91.4%
same,"viability, T/C",[13],79.3%
same,"viability, T/C",[14],60%
same,"viability, T/C",[15],42.9%
same,"viability, T/C",[16],41%
same,"viability, T/C",[17],99.7%
same,"viability, T/C",[18],96%
same,"viability, T/C",[19],75.5%
same,"viability, T/C",[20],60.5%
same,"viability, T/C",[21],35.9%
same,"viability, T/C",[22],48.4%
same,"viability, T/C",[23],107%
same,"viability, T/C",[24],74%
same,"viability, T/C",[25],77.9%
same,"viability, T/C",[26],56.1%
same,"viability, T/C",[27],42.4%
same,"viability, T/C",[28],47.2%
same,"viability, T/C",[30],39.3%
same,"viability, T/C","second compound 10 µM, first compound 0.1 µM",41.3%
same,"viability, T/C","second compound 10 µM, first compound 0.316 µM",34.7%
same,"viability, T/C","second compound 10 µM, first compound 1 µM",27.6%
same,"viability, T/C","second compound 10 µM, first compound 3.16 µM",15.2%
same,"viability, T/C","second compound 10 µM, first compound 10 µM",4.25%
